Measurements reported in patent US20070167631A1, “Novel herbicides” (priority 2003, published 2007).

Assays:
Maize [1] = assay: Comparison test with prior art compound B, post-emergence herbicidal action (Example B5); format: in vivo; details: 125 g/ha
Source text: (§1) The post-emergence herbicidal action of compound no. 1.096 according to the invention was compared with compound B, which is described as compound no. 2.088 on page 83,

Galium [2] = assay: as above; format: in vivo; details: 125 g/ha, rating scale 10=total damage, 0=no action
Source text: as §1

Stellaria [3] = assay: as above; format: in vivo; details: 125 g/ha, rating scale 10=total damage, 0=no action
Source text: as §1

Polygonum = assay: as above; format: in vivo; details: 125 g/ha, rating scale 10=total damage, 0=no action
Source text: as §1

Wheat [4] = assay: as above; format: in vivo; details: 125 g/ha
Source text: as §1

Ipomea [5] = assay: as above; format: in vivo; details: 125 g/ha, rating scale 10=total damage, 0=no action
Source text: as §1

Maize [6] = assay: Comparison test with prior art compound A, post-emergence herbicidal action (Example B4); format: in vivo; details: 125 g/ha, crop plant, rating scale 10=total damage, 0=no action
Source text: (§2) The post-emergence herbicidal action of compound no. 1.095 according to the invention was compared with compound A, which is described as compound no.

Galium [7] = assay: as above; format: in vivo; details: 125 g/ha, rating scale 10=total damage, 0=no action
Source text: as §2

Sida [8] = assay: as above; format: in vivo; details: 125 g/ha, rating scale 10=total damage, 0=no action
Source text: as §2

Amaranthus [9] = assay: as above; format: in vivo; details: 125 g/ha, rating scale 10=total damage, 0=no action
Source text: as §2

Stellaria [10] = assay: as above; format: in vivo; details: 125 g/ha, rating scale 10=total damage, 0=no action
Source text: as §2

Wheat [11] = assay: as above; format: in vivo; details: 125 g/ha, crop plant, rating scale 10=total damage, 0=no action
Source text: as §2

Ipomea [12] = assay: as above; format: in vivo; details: 125 g/ha, rating scale 10=total damage, 0=no action
Source text: as §2

Sinapis = assay: as above; format: in vivo; details: 125 g/ha, rating scale 10=total damage, 0=no action
Source text: as §2

Digitaria = assay: Microscreen, post-emergence herbicidal action (Example B3); format: in vivo; details: 250 g/ha, evaluated after 9 or 13 days, scale of eleven ratings (10=total damage, 0=no action)
Protocol: (§3) Example B3 Microscreen, Post-Emergence Herbicidal Action Monocotyledonous and dicotyledonous test plants are sown in sterilised standard soil in seed trays each having 96 cells. After 8 to 9 days' cultivation under controlled conditions in a climatic chamber (cultivation at 17/23° C.; 13 hours' light; 50-60% humidity; after application at 19/24° C.), the plants are treated with an aqueous spray solution of 1000 mg/l of the active ingredient used ([…]; incl. 10% DMSO as solvent). The plants are grown on in the climatic chamber until the test is evaluated after 9 or 13 days. The test is evaluated in accordance with a scale of eleven ratings (10=total damage, 0=no action). Ratings of from 10 to 7 (especially from 10 to 8) indicate very good to good herbicidal action.

Stellaria [13] = assay: as above; format: in vivo; details: 250 g/ha, evaluated after 9 or 13 days, scale of eleven ratings (10=total damage, 0=no action)
Protocol: as §3

Nasturtium = assay: as above; format: in vivo; details: 250 g/ha, evaluated after 9 or 13 days, scale of eleven ratings (10=total damage, 0=no action)
Protocol: (§4) Example B3 Microscreen, Post-Emergence Herbicidal Action Monocotyledonous and dicotyledonous test plants are sown in sterilised standard soil in seed trays each having 96 cells. […] The plants are grown on in the climatic chamber until the test is evaluated after 9 or 13 days. The test is evaluated in accordance with a scale of eleven ratings (10=total damage, 0=no action). Ratings of from 10 to 7 (especially from 10 to 8) indicate very good to good herbicidal action.

Amaranthus [14] = assay: as above; format: in vivo; details: 250 g/ha, evaluated after 9 or 13 days, scale of eleven ratings (10=total damage, 0=no action)
Protocol: as §4

Solanum = assay: as above; format: in vivo; details: 250 g/ha, evaluated after 9 or 13 days, scale of eleven ratings (10=total damage, 0=no action)
Protocol: as §4

Sida [15] = assay: Comparison test with prior art compound B, post-emergence herbicidal action (Example B5); format: in vivo; details: 125 g/ha, rating scale 10=total damage, 0=no action
Source text: as §1

Bromus = assay: as above; format: in vivo; details: 125 g/ha, rating scale 10=total damage, 0=no action
Source text: as §1

[16] = crop plant, rating scale 10=total damage, 0=no action

| SMILES | Post-emergence herbicidal action: Galium (Galium [2]) | Post-emergence herbicidal action: Stellaria (Stellaria [3]) | Post-emergence herbicidal action: Polygonum (Polygonum) | Post-emergence herbicidal action: Ipomea (Ipomea [5]) | Digitaria, herbicidal action rating (Digitaria) | Stellaria, herbicidal action rating (Stellaria [13]) | Nasturtium, herbicidal action rating (Nasturtium) | Amaranthus, herbicidal action rating (Amaranthus [14]) | Solanum, herbicidal action rating (Solanum) | further results |
| --- | --- | --- | --- | --- | --- | --- | --- | --- | --- | --- |
| COc1nc(C(=O)C2=C(O)C3CCC(C3)C2=O)ccc1C(F)(F)F (stereo not drawn) [B, reference compound] | 4 | 6 | 4 | 6 | – | – | – | – | – | Post-emergence herbicidal action: Maize (Maize [1]; [16]): 2; phytotoxicity to maize (Maize [1]; post-emergence): 20%; Post-emergence herbicidal action: Wheat (Wheat [4]; [16]): 2; phytotoxicity to wheat (Wheat [4]; post-emergence): 20% |
| O=C1CCCC(O)=C1C(=O)c1ccc(C(F)(F)F)c(Cl)n1 [Compound 1.095] | – | – | – | – | 3 | 7 | 9 | 7 | 7 | Post-emergence herbicidal action: Maize (Maize [6]): 0; Post-emergence herbicidal action: Galium (Galium [7]): 6; Post-emergence herbicidal action: Sida (Sida [8]): 5; Post-emergence herbicidal action: Amaranthus (Amaranthus [9]): 7; Post-emergence herbicidal action: Stellaria (Stellaria [10]): 8; Post-emergence herbicidal action: Wheat (Wheat [11]): 0; Post-emergence herbicidal action: Ipomea (Ipomea [12]): 7; Post-emergence herbicidal action: Sinapis (Sinapis): 7 |
| COc1nc(C(=O)C2=C(O)CCCC2=O)ccc1C(F)(F)F [Compound 1.096] | 8 | 8 | 8 | 7 | 8 | 9 | 10 | 9 | 9 | melting point: 80 to 81 °C; Post-emergence herbicidal action: Sida (Sida [15]): 7; Post-emergence herbicidal action: Bromus (Bromus): 5 |
